Laboratory results: patent US8163750B2, “Fluorene derivatives, compositions containing the same and use thereof as inhibitors of the protein chaperone HSP 90” (Sanofi-Aventis, priority 2006, dated 2012)

What was measured:
[1] = biological target: Hsp82 (Saccharomyces cerevisiae, UniProt P02829); assay: Hsp82 ATPase activity, pyruvate kinase/lactate dehydrogenase enzymatic coupling system; assay type: biochemical; conditions: PK/LDH coupled kinetic method, NADH absorbance 340 nm, 1 μM Hsp82, 250 μM ATP, 37° C.
Sequence of Hsp82 (P02829 whole entry): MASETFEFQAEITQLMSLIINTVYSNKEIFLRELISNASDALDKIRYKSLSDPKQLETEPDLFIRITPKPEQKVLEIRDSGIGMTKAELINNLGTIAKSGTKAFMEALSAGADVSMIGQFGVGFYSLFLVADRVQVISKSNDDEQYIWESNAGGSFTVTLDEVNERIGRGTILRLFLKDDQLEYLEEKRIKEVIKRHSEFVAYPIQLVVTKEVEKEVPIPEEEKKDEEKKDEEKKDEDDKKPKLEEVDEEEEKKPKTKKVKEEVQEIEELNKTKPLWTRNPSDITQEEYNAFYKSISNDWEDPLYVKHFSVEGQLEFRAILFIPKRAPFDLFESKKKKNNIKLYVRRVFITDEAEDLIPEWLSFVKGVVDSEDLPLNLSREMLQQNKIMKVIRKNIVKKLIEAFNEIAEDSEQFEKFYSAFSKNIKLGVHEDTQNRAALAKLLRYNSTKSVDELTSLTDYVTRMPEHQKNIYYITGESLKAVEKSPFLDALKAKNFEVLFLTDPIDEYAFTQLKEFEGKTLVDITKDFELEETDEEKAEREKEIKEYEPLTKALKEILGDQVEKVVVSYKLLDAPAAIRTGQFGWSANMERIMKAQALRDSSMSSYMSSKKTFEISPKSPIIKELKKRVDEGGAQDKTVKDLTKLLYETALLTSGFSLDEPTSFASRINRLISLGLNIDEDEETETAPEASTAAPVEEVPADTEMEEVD
Description: The formation of ADP due to the ATPase activity of Hsp82 was utilized for developing another method of evaluating the enzymatic activity of this enzyme by the application of an enzymatic coupling system involving pyruvate kinase (PK) and lactate dehydrogenase (LDH). In this spectrophotometric method of the kinetic type, PK catalyses the formation of ATP and pyruvate from phosphoenol-pyruvate (PEP) and ADP produced by HSP82. The pyruvate formed, a substrate of LDH, is then converted to lactate in the presence of NADH. In this case, the decrease in the concentration of NADH, measured from the decrease in absorbance at a wavelength of 340 nm, is proportional to the concentration of ADP produced by HSP82. The test products are incubated in a reaction volume of 100 μl of buffer composed of 100 mM Hepes-NaOH (pH 7.5), 5 mM MgCl2, 1 mM DTT, 150 mM KCl, 0.3 mM NADH, 2.5 mM PEP and 250 μM ATP. This mixture is preincubated at 37° C. for 30 min before adding 3.77 units of LDH and 3.77 units of PK. The reaction is initiated by adding the product to be evaluated, at various concentrations, and Hsp82, at a concentration of 1 μM. Measurement of the enzymatic activity of Hsp82 is then performed continuously in a microplate reader, at 37° C., at a wavelength of 340 nm. The initial rate of the reaction is found by measuring the gradient of the tangent at the origin of the curve that is recorded. The enzymatic activity is expressed in μM of ADP formed per minute. The effect of the various products tested is expressed as percentage inhibition of ATPase activity according to the following code: • A: IC50<1 μM • B: 1 μM<IC50<10 μM • C: 10 μM<IC50<100 μM

IC50 [1] [nM] | melting point [°C] | Compound
1000 to 10000 |  | Nc1ncc(Cl)c(C(=O)NC2c3ccccc3-c3c(-c4ncc[nH]4)cccc32)n1 (racemic) [Example 1, [4-(1H-imidazol-2-yl)-9H-fluoren-9(R,S)-yl]-amide of 2-amino-5-chloro-pyrimidine-4-carboxylic acid]
1000 to 10000 | > 260 | O=C(NC1c2ccccc2-c2c(-c3cc4ccccc4o3)cccc21)c1ccnc2[nH]ccc12 (racemic) [Example 2, [4-(benzofuran-2-yl)-9H-fluoren-9(R,S)-yl)]-amide of 1H-pyrrolo[2,3-b]pyridine-4-carboxylic acid]
1000 to 10000 | > 260 | O=C(NC1c2ccccc2-c2c(-c3cnc4ccccc4c3)cccc21)c1ccnc2[nH]ccc12 (racemic) [Example 3, [4-(quinolin-3-yl)-9H-fluoren-9(R,S)-yl)]-amide of 1H-pyrrolo[2,3-b]pyridine-4-carboxylic acid]
1000 to 10000 | > 260 | O=C(NC1c2ccccc2-c2c(-c3ccc(F)nc3)cccc21)c1ccnc2[nH]ccc12 (racemic) [Example 4, [4-(6-fluoro-pyridin-3-yl)-9H-fluoren-9-(R,S)-yl]-amide of 1H-pyrrolo[2,3-b]pyridine-4-carboxylic acid]
< 1000 |  | O=C(NC1c2ccccc2-c2c(-c3cc4ccccc4[nH]3)cccc21)c1ccnc2[nH]ccc12 (racemic) [Example 5, [4-(1H-indol-2-yl)-9H-fluoren-9-(R,S)-yl]-amide of 1H-pyrrolo[2,3-b]pyridine-4-carboxylic acid]
< 1000 | > 260 | O=C(NC1c2ccccc2-c2c(-c3nc4ccccc4o3)cccc21)c1ccnc2[nH]ccc12 (racemic) [Example 6, [4-(benzoxazol-2-yl)-9H-fluoren-9-(R,S)-yl]-amide of 1H-pyrrolo[2,3-b]pyridine-4-carboxylic acid]
< 1000 | > 260 | O=C(NC1c2ccccc2-c2c(-c3cncnc3)cccc21)c1ccnc2[nH]ccc12 (racemic) [Example 7, [4-(pyrimidin-5-yl)-9H-fluoren-9-(R,S)yl]-amide of 1H-pyrrolo[2,3-b]pyridine-4-carboxylic acid]
1000 to 10000 | 260 | O=C(NC1c2ccccc2-c2c(-c3ccc4ccccc4n3)cccc21)c1ccnc2[nH]ccc12 (racemic) [Example 8, [4-(quinolin-2-yl)-9H-fluoren-9-(R,S)-yl]-amide of 1H-pyrrolo[2,3-b]pyridine-4-carboxylic acid]
1000 to 10000 |  | O=C(NC1c2ccccc2-c2c(-c3nc4ccccn4n3)cccc21)c1ccnc2[nH]ccc12 (racemic) [Example 9, (4-[1.2.4]triazolo[1,5-a]pyridin-2-yl-9H-fluoren-9(R,S)-yl)-amide of 1H-pyrrolo[2,3-b]pyridine-4-carboxylic acid]
1000 to 10000 |  | O=C(NC1c2ccccc2-c2c(C3=Nc4ccccc4OC3)cccc21)c1ccnc2[nH]ccc12 (racemic) [Example 10, [4-(1,4-benzoxazin-2H-3-yl)-9H-fluoren-9(R,S)-yl]-amide of 1H-pyrrolo[2,3-b]pyridine-4-carboxylic acid]
< 1000 |  | O=C(NC1c2ccccc2-c2c(-c3cnc4ccccc4c3)cccc21)c1ncnc2[nH]ccc12 (racemic) [Example 11, [4-(quinolin-3-yl)-9H-fluoren-9(R,S)-yl]-amide of 7H-pyrrolo[2,3-c]pyrimidine-4-carboxylic acid]
1000 to 10000 |  | O=C(NC1c2ccccc2-c2c(-c3cnc4ccccc4n3)cccc21)c1ccnc2[nH]ccc12 (racemic) [Example 12, [4-(quinoxalin-2-yl)-9H-fluoren-9(R,S)-yl]-amide of 1H-pyrrolo[2,3-b]pyridine-4-carboxylic acid]
< 1000 |  | O=C(NC1c2ccccc2-c2c(-c3cnc4ccccc4c3)cccc21)c1c(Br)cnc2[nH]cnc12 (racemic) [Example 13, [4-(quinolin-3-yl)-9H-fluoren-9(R,S)-yl]-amide of 6-bromo-3H-imidazo[4,5-b]pyridine-7-carboxylic acid]
1000 to 10000 |  | O=C(NC1c2ccccc2-c2c(-c3ccc(N4CCOCC4)nc3)cccc21)c1ccnc2[nH]ccc12 (racemic) [Example 14, [4-(2-morpholino-pyridin-5-yl)-9H-fluoren-9(R,S)-yl]-amide of 1H-pyrrolo[2,3-b]pyridine-4-carboxylic acid]
< 1000 |  | Nc1ncc(Cl)c(C(=O)NC2c3ccccc3-c3c(-c4cnc5ccccc5c4)cccc32)n1 (racemic) [Example 15, [4-(quinolin-3-yl)-9H-fluoren-9(R,S)-yl]-amide of 2-amino-5-chloro-pyrimidine-4-carboxylic acid]
1000 to 10000 | 220 | O=C(NC1c2ccccc2-c2c(C(=O)n3ncc4ccccc43)cccc21)c1ccnc2[nH]ccc12 (racemic) [Example 16, [4-(indazole-1-carbonyl)-9H-fluoren-9(R,S)-yl]-amide of 1H-pyrrolo[2,3-b]pyridine-4-carboxylic acid]
< 1000 |  | O=C(NC1c2ccccc2-c2c(-c3cnc4[nH]ccc4c3)cccc21)c1ccnc2[nH]ccc12 (racemic) [Example 17, [4-(1H-pyrrolo[2,3-b]pyridin-5-yl)-9H-fluoren-9(R,S)-yl]-amide of 1H-pyrrolo[2,3-b]pyridine-4-carboxylic acid]
1000 to 10000 |  | O=C(NC1c2ccccc2-c2c(-c3cnc4c(c3)CCCN4)cccc21)c1ccnc2[nH]ccc12 (racemic) [Example 18, [4-(5,6,7,8-tetrahydro-1,8-naphthyridin-3-yl)-9H-fluoren-9(R,S)-yl]-amide of 1H-pyrrolo[2,3-b]pyridine-4-carboxylic acid]
< 1000 | 270 | O=C(NC1c2ccccc2-c2c(-c3cn4ccccc4n3)cccc21)c1ccnc2[nH]ccc12 (racemic) [Example 19, 4-{imidazo[1,2-a]pyridin-2-yl}-9H-fluoren-9-(R,S)-yl-amide of 1H-pyrrolo[2,3-b]pyridine-4-carboxylic acid]
10000 to 100000 |  | O=C(NC1c2ccccc2-c2c(-c3cnc4ccccc4c3)cccc21)c1c(Br)cnc2[nH]cnc12 (single isomer, unassigned) [Example 20]
< 1000 |  | O=C(NC1c2ccccc2-c2c(-c3cnc4ccccc4c3)cccc21)c1c(Br)cnc2[nH]cnc12 (single isomer, unassigned) [Example 21]
